This is an account of results in patent US7879835B2 (Korea Research Institute of Chemical Technology, priority 2004, dated 2011).

The test system of one data set is osteoclasts. Kind of data set: Inhibitory effect on resorption activity of osteoclast (resorption pit area on calcium phosphate-coated plate). The data set is classed as cell-based, mice. To be noted: compared to control. The protocol: After finishing culture, the plate was washed with distilled water, and 50 μl/well of 5% sodium hypochlorite was added to the plate. The plate was let alone for 5 min, washed again with distilled water to remove the adherent cells, and dried at room temperature. Then, the area of formed resorption pits was calculated by means of Image Pro Plus software (Media Cybernetics Ver. 3.0).

Data set [1] deals with osteoclast (TRAP-positive multinuclear cell) formation. As to the kind of experiment: Inhibitory effect on osteoclast formation (TRAP staining). The data set is classed as cell-based, mice. To be noted: 8 days culture with M-CSF and RANKL, compared to control. How it is done:
The inhibitory activities of the alpha-arylmethoxyacrylate derivatives prepared in the above Examples on the proliferation of osteoclasts were examined as follows.
First, a bone marrow sample containing osteoclast pregenitor cells was isolated as follows. After sacrificing 7 to 9 week-old female mice by cervical dislocation, femur and tibia were excised aseptically while removing soft tissues attached thereto, After cutting both ends of the long bones, 1 ml of an enzyme solution containing 0.1% collagenase (Gibco), 0.05% trypsin and 0.5 mM EDTA (Gibco) was injected into the bone marrow cavity at one end using a syringe with a 26-gauge needle, and the bone marrow was then collected. After stirring the recovered bone marrow for 30 min, the precipitated bone marrow cells were collected, and cultured in α-minimum essential medium (α-MEM) supplemented with 10% FBS for 24 hrs. Then, non-adherent cells, which are osteoclast pregenitors, were aliquoted onto a culture plate at a density of 2×10^5 cells per well, and cultured for 8 days in α-MEM supplemented with 20 ng/ml of macrophage-colony stimulating factor (M-CSF, Peprotech, USA), 30 ng/ml RANKL (Peprotech, USA), and 0.3, 1.0 or 3 μM of the compounds of the Examples. Control cells were cultured at the same condition except not adding the compounds of the Examples.
After cell culture for 8 days, the adherent cells were washed with PBS and fixed with citrate-acetate-formaldehyde for 5 min. The fixed cells were incubated at 37° C. for 1 hr in acetate buffer (pH 5.0) containing naphthol AS-BI phosphate, fast Garnet GBC solution and 7 mM tartrate buffer (pH 5.0) to conduct TRAP (tartrate-resistant acid phosphatase) staining.

Another data set has as its system MG-63 cells. Kind of data set: Cytotoxicity test against osteoblast (MTT). The data set is classed as cell-based, human. The protocol: (§1) In order examine the toxicities of the compounds of the Examples against osteoclast pregenitors, pregenitor cells were aliquotted onto a 96-well microplate at a density of 2×10^5 cells per well, treated with 2, 4 and 8 μM of the test compounds, respectively, and cultured for 48 hrs in α-MEM supplemented with 20 ng/ml of M-CSF (Peprotech, USA) using 37° C. incubator (5% CO2). At 3 hrs before the culture was finished, 50 μl of MTT (3-(4,5-dimethylthiazol-2-yl)-2,5-diphenyltetrazolium bromide) solution (50 μg/ml) was added to each well. Upon completion of the cell culture, the supernatant was removed, and the precipitated dye was reacted with 100 μl of isopropanol/0.04 N HCl at room temperature for 30 min to dissolve it. The absorbances of the wells were measured at 550 nm, and the relative absorbance of each well relative to that of the control (set as 100) is shown in Table 6.
In order to examine the toxicity of the compounds of the Examples against osteoblasts, human osteosarcoma-derived cell line, MG-63 (ATCC No. CRL-1427) cells were treated with 0.1, 0.3, 1.0 and 3.0 μM of the compounds of the Examples, and cultured in DMEM supplemented with 10% FBS (fetal bovine serum).

Data set [2] relates to osteoclast pregenitor cells. As to the kind of experiment: Cytotoxicity against osteoclast pregenitor (MTT). The data set is classed as cell-based, mice. To be noted: 48 hrs, absorbance at 550 nm. The protocol:
as §1

In the case of `CO/C=C(/C(=O)OC)c1ccccc1CON=C(C)c1cccc(OCCN2CCOCC2)c1` [compound 20], the “Reduction (%) of the resorption pit area of osteoclasts” value (shortened to “Reduction (%)”) in the data set with osteoclasts (1 uM) came out at 26%; in the data set on osteoclasts (3 uM) it was 47%. Further, the “Osteoclast formation inhibitory effects (%)” value in data set [1] (0.3 μM) was determined as 12%; in data set [1] (1.0 μM), 34%; in data set [1] (3.0 μM), 100%. Moreover, the “relative absorbance relative to that of the control (set as 100), MTT” value (shortened to “relative absorbance relative to that”) was 106 with MG-63 cells (0.33 uM), 106 in the data set on MG-63 cells (1 uM) and 105 in the data set with MG-63 cells (3 uM).
For the molecule `C=CCCCCCCOc1cccc(OCc2ccccc2/C(=C\OC)C(=O)OC)c1` [compound 197], the “Reduction (%)” value with osteoclasts (0.3 uM), in the data set with osteoclasts (1 uM) and in the data set with osteoclasts (3 uM) was 100% throughout. Further, the “Osteoclast formation inhibitory effects (%)” value in data set [1] (0.3 μM), in data set [1] (1.0 μM) and in data set [1] (3.0 μM) was 100% each time. Besides, the “relative absorbance relative to that” value with MG-63 cells (0.11 uM) is on record as 112; in the data set on MG-63 cells (0.33 uM), 101; with MG-63 cells (1 uM), 111; in the data set with MG-63 cells (3 uM), 103.
With `CO/C=C(/C(=O)OC)c1ccccc1COc1cccc(C(F)CC(C)(F)F)c1` (stereo not drawn) [compound 205], the “relative absorbance relative to that” value in data set [2] (2 uM) was 101; in data set [2] (4 uM), 109; in data set [2] (8 uM) it was 104. Also, the “Reduction (%)” value in the data set with osteoclasts (1 uM) and in the data set on osteoclasts (3 uM) was 100% in each case. For the same molecule, the “Osteoclast formation inhibitory effects (%)” value in data set [1] (0.3 μM) was determined as 90%; in data set [1] (1.0 μM) it was 100%; in data set [1] (3.0 μM) it was 100%.
On to `CO/C=C(/C(=O)OC)c1ccccc1COc1cccc(C(F)CC(C)=O)c1` (stereo not drawn) [compound 206], for which the entries for the “relative absorbance relative to that” value in data set [2] (2 uM), in data set [2] (4 uM) and in data set [2] (8 uM) were 102, 102 and 108, respectively. Also, the results for the “Reduction (%)” value with osteoclasts (0.3 uM), in the data set with osteoclasts (1 uM) and in the data set with osteoclasts (3 uM) were 97%, 100% and 100%, respectively. Besides, the “Osteoclast formation inhibitory effects (%)” value in data set [1] (0.3 μM) was found to be 35%; in data set [1] (1.0 μM) it was 100%; in data set [1] (3.0 μM), 100%.
Consider `CO/C=C(/C(=O)OC)c1ccccc1COc1cccc(OCC2CC2)c1` [compound 215], for which the “relative absorbance relative to that” value in data set [2] (2 uM) is listed as 96; in data set [2] (4 uM) it was 102; in data set [2] (8 uM), 107. In addition, the “Reduction (%)” value in the data set with osteoclasts (0.3 uM) is 97%; in the data set with osteoclasts (1 uM) it was 100%; with osteoclasts (3 uM), 100%. In addition, the “Osteoclast formation inhibitory effects (%)” value in data set [1] (0.3 μM) amounted to 51%; in data set [1] (1.0 μM) it was 100%; in data set [1] (3.0 μM), 100%.
As for `CO/C=C(/C(=O)OC)c1ccccc1COc1cccc(OCC=C(C)C)c1` [compound 217], the results for the “relative absorbance relative to that” value in data set [2] (2 uM), in data set [2] (4 uM) and in data set [2] (8 uM) were 90, 96 and 107, respectively. The “Reduction (%)” value with osteoclasts (1 uM) and in the data set with osteoclasts (3 uM) was 100% throughout. Moreover, the entries for the “Osteoclast formation inhibitory effects (%)” value in data set [1] (0.3 μM), in data set [1] (1.0 μM) and in data set [1] (3.0 μM) were 94%, 100% and 100%, respectively.
As for `CO/C=C(/C(=O)OC)c1ccccc1COc1cccc(OCC(C)C)c1` [compound 219], the “relative absorbance relative to that” value in data set [2] (2 uM) is reported as 90; in data set [2] (4 uM) it was 100; in data set [2] (8 uM), 99. Also, the results for the “Reduction (%)” value in the data set with osteoclasts (1 uM) and in the data set with osteoclasts (3 uM) were 88% and 100%, respectively. Moreover, the “Osteoclast formation inhibitory effects (%)” value in data set [1] (0.3 μM) worked out at 99%; in data set [1] (1.0 μM), 100%; in data set [1] (3.0 μM), 100%.
Turning to `CCCCCCOc1cccc(OCc2ccccc2/C(=C\OC)C(=O)OC)c1` [compound 220], the “relative absorbance relative to that” value amounted to 89 in data set [2] (2 uM), 98 in data set [2] (4 uM) and 96 in data set [2] (8 uM). Further, the “Reduction (%)” value with osteoclasts (0.3 uM) is on record as 42%; with osteoclasts (1 uM) it was 70%; in the data set on osteoclasts (3 uM) it was 73%. For the same molecule, the “Osteoclast formation inhibitory effects (%)” value in data set [1] (0.3 μM), in data set [1] (1.0 μM) and in data set [1] (3.0 μM) was 100% in each case.
Take `CCC(C)Oc1cccc(OCc2ccccc2/C(=C\OC)C(=O)OC)c1` (stereo not drawn) [compound 221]: the “relative absorbance relative to that” value in data set [2] (2 uM) amounted to 96; in data set [2] (4 uM), 96; in data set [2] (8 uM) it was 99. Also, the “Reduction (%)” value with osteoclasts (0.3 uM) is 94%; in the data set on osteoclasts (1 uM), 100%; in the data set on osteoclasts (3 uM), 100%. The “Osteoclast formation inhibitory effects (%)” value in data set [1] (0.3 μM) came out at 39%; in data set [1] (1.0 μM) it was 100%; in data set [1] (3.0 μM) it was 100%.
Take `CO/C=C(/C(=O)OC)c1ccc(Cl)cc1COc1ccc(OCC=C(C)C)cc1` [compound 269]: the “Reduction (%)” value in the data set with osteoclasts (0.3 uM), with osteoclasts (1 uM) and in the data set on osteoclasts (3 uM) was 100% in each case. Moreover, the “Osteoclast formation inhibitory effects (%)” value in data set [1] (0.3 μM) turned out to be 97%; in data set [1] (1.0 μM) it was 100%; in data set [1] (3.0 μM), 100%. Moreover, the “relative absorbance relative to that” value with MG-63 cells (0.33 uM) is listed as 81; in the data set with MG-63 cells (1 uM), 94; in the data set on MG-63 cells (3 uM), 88.
Regarding `CCCCCCOc1ccc(OCc2cc(Cl)ccc2/C(=C\OC)C(=O)OC)cc1` [compound 271], the “Reduction (%)” value was 30% with osteoclasts (0.3 uM), 94% in the data set with osteoclasts (1 uM) and 42% in the data set with osteoclasts (3 uM). In addition, the “Osteoclast formation inhibitory effects (%)” value in data set [1] (0.3 μM) was 94%; in data set [1] (1.0 μM) it was 100%; in data set [1] (3.0 μM), 100%. Moreover, the “relative absorbance relative to that” value was 114 in the data set on MG-63 cells (0.33 uM), 79 with MG-63 cells (1 uM) and 64 with MG-63 cells (3 uM).
